Test results reported in US10513521B2, “Compositions and methods for inhibiting BMP” (The Brigham and Women's Hospital, Inc., priority 2014, dated 2019).
Changes are numbered by the printed parent chain. Like-named read-outs stand apart in the source and are kept apart here.

Tests used:
ALK2 [1] = target: T1, ALK2 (Mus musculus, UniProt P37172); test: HTRF pSMAD1 cell-based ALK2 assay (C2C12 cells, BMP6 as agonist)
T1 construct: The C2C12 cell line was selected for the measurement of ALK2 activity using BMP6 as the agonist; host or cells: C2C12
T1 sequence (P37172 21-509): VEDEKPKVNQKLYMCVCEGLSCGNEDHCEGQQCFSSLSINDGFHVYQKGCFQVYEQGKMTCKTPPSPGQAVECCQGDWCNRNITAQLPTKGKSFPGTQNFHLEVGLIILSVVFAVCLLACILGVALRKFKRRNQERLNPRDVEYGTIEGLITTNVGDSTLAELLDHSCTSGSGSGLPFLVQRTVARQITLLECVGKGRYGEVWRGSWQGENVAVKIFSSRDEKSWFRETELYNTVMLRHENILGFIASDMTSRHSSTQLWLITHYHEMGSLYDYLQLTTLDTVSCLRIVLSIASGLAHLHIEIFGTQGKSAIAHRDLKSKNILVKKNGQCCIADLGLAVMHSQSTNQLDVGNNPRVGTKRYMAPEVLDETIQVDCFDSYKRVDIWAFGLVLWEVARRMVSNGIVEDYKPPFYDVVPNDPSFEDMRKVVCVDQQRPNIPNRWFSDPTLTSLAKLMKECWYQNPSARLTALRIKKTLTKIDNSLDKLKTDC
Protocol: 2. HTRF Cell-Based ALK1 and ALK2 Assays in 384-Well Plate Format We have developed a cell based ALK1 kinase assay and a cell-based ALK2 assay. The BAOEC cell line was employed for the measurement of ALK1 activity using BMP9 as the agonist. The C2C12 cell line was selected for the measurement of ALK2 activity using BMP6 as the agonist. The kinase specificity was defined by the specific cell line and agonist. The kinase activity was determined by the status of SMD 1/5/8 phosphorylation stimulated by the agonist.
HyClone Fetal Bovine Serum was obtained from GE healthcare life sciences (Logan, Utah). BMP6 and BMP9 were purchased from R&D System. […] The compound plates and the white solid MB assay plates were purchased from Greiner Bio-one (Monroe, N.C.).
HTRF optimization experiments were performed in 384 well plate format. […] Pre-starved cells were then plated in 384 well plate in the starvation medium (containing in 0.1% FBS). After 4 hours, compounds were added to the assay plate and incubated for 30 minutes. The assay plate was then added with BMP6 for C2C12 cells or BMP9 for BAOEC cells and incubated for 30 minutes.
HTRF assay was performed to measure the status of SMAD 1 phosphorylation after stimulated with the agonist (Table 3). This HTRF phospho SMAD1 cell assay was developed and optimized for the homogenous detection of phospho SMAD 1 levels in cells. […] The plate was incubated at room temperature for overnight.

ALK1 = ALK1 (Homo sapiens, UniProt P37023); test: TR-FRET enzymatic ALK kinase assay, ALK1
Chain of ALK1 (P37023 22-503): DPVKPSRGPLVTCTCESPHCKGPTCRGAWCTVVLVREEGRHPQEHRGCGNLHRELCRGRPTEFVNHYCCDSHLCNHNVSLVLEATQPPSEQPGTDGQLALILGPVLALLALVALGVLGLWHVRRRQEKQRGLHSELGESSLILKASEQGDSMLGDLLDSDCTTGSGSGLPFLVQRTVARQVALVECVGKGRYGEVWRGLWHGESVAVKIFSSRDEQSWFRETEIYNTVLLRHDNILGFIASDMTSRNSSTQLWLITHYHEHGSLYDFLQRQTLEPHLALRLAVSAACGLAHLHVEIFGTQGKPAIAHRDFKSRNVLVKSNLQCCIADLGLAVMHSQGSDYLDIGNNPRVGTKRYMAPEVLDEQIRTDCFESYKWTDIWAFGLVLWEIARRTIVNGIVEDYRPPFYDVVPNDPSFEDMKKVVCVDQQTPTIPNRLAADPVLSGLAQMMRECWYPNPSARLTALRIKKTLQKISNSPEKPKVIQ
Protocol: (§1) Briefly, the ALKs enzymatic assay was initiated by dispense 2.5 μl enzyme in 1× kinase reaction buffer. The assay plate was then added with compounds followed by incubation at room temperature for 10 minutes. Then 2.5 μl/well substrate was added.

ALK2 [2] = target: T2, ALK2 (Homo sapiens, UniProt Q04771); test: TR-FRET enzymatic ALK kinase assay, ALK2
T2 sequence (Q04771 21-509): T1 sequence (P37172 21-509) with V1M, Q10P, I121L, E162D, S310P
Protocol: as §1

ALK3 = ALK3 (Homo sapiens, UniProt P36894); test: TR-FRET enzymatic ALK kinase assay, ALK3
Chain of ALK3 (P36894 24-532): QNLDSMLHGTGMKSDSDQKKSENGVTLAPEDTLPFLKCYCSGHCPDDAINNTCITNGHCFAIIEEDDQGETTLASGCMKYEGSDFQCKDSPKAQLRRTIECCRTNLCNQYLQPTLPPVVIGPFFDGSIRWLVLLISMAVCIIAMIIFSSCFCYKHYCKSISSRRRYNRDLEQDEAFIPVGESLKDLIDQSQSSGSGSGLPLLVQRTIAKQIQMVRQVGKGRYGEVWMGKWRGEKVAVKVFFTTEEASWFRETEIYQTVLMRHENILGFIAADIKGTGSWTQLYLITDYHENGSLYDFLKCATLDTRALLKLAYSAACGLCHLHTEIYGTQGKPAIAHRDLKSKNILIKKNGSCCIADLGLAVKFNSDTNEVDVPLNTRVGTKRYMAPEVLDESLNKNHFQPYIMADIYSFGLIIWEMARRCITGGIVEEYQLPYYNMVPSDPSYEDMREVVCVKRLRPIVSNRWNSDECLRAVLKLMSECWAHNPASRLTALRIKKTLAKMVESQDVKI
Protocol: as §1

ALK4 = target: T3, ALK4 (Homo sapiens, UniProt P36896); test: TR-FRET enzymatic ALK kinase assay, ALK4
T3 sequence (P36896 24-505): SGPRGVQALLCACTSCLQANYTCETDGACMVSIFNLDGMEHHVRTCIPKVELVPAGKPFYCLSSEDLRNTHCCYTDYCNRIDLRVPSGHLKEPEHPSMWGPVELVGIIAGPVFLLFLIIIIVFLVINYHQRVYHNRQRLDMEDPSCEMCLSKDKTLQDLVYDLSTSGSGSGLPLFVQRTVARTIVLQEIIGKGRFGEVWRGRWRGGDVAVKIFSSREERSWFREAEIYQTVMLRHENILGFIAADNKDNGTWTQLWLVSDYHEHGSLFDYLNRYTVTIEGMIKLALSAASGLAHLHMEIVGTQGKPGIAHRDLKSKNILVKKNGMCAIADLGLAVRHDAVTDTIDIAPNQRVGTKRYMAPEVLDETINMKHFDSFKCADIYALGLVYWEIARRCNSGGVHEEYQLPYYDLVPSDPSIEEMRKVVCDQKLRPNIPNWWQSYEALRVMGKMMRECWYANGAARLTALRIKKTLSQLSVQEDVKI
Protocol: as §1

ALK5 = target: T4, ALK5 (Homo sapiens, UniProt P36897); test: TR-FRET enzymatic ALK kinase assay, ALK5
T4 sequence (P36897 34-503): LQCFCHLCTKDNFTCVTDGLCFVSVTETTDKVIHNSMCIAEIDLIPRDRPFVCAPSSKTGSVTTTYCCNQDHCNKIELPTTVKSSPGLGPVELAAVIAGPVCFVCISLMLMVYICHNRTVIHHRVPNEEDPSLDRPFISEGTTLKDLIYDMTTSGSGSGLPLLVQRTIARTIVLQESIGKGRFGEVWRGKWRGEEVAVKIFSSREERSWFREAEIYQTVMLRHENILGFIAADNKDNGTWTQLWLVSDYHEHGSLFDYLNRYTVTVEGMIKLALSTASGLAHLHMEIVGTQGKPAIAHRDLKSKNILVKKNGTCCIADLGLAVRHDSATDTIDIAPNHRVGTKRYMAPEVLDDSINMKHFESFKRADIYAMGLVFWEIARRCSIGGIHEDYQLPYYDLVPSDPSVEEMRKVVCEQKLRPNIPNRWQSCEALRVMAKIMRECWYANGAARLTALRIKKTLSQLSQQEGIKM
Protocol: Six ALK kinase enzyme assays were developed for determination of compound activities on ALK1, ALK2, ALK3, ALK4, ALK5 and ALK6.
as §1

ALK6 = ALK6 (Homo sapiens, UniProt O00238); test: TR-FRET enzymatic ALK kinase assay, ALK6
Chain of ALK6 (O00238 14-502): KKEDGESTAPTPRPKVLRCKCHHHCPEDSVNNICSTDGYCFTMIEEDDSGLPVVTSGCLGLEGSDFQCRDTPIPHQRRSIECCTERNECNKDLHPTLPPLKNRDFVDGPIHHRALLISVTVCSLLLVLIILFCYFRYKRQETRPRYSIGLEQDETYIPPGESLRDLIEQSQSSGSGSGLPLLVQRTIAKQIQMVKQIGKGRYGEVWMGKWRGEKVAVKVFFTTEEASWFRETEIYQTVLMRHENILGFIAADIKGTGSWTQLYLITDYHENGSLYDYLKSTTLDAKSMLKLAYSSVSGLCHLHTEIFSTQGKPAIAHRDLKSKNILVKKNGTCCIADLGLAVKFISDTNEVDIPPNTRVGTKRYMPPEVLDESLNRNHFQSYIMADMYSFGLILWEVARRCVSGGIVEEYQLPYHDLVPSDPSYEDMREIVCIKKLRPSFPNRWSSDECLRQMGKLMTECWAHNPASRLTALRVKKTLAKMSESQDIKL
Protocol: as §1

[3] = HTRF assay, BMP6 as agonist, C2C12 cells, read-out: BMP6 HTRF
[4] = cell-based assay, BMP6, read-out: Cell IC50 BMP6

IC50 (ALK2 [1]; [3]) [nM]	IC50 (ALK1) [nM]	IC50 (ALK2 [2]) [nM]	IC50 (ALK3) [nM]	IC50 (ALK4) [nM]	IC50 (ALK5) [nM]	IC50 (ALK6) [nM]	IC50 (ALK2 [1]; [4]) [nM]	SMILES
	220	66	2200	> 10000	> 10000	> 10000	2.2	CCS(=O)(=O)c1cccc(-c2cnn3cc(-c4ccc(CCN5CCCCC5)cc4)cnc23)c1 [Compound 106, 3-(3-(ethylsulfonyl)phenyl)-6-(4-(2-(piperidin-1-yl)ethyl)phenyl)pyrazolo[1,5-a]pyrimidine]
	160	37	1400	6400	> 10000	> 10000	750	C[C@@H]1CNC[C@H](C)N1c1ccc(-c2cnc3c(-c4cccc(CS(N)(=O)=O)c4)cnn3c2)cc1 [Compound 73, (3-(6-(4-((2R,6S)-2,6-dimethylpiperazin-1-yl)phenyl)pyrazolo[1,5-a]pyrimidin-3-yl)phenyl)methanesulfonamide]
	140	43	900	4100	> 10000	2500	284	C[C@@H]1CNC[C@H](C)N1c1ccc(-c2cnc3c(-c4ccc(N)c5ccccc45)cnn3c2)cc1 [Compound 59, 4-(6-(4-((2R,6S)-2,6-dimethylpiperazin-1-yl)phenyl)pyrazolo[1,5-a]pyrimidin-3-yl)naphthalen-1-amine]
	530	210	> 10000	> 10000	> 10000	> 10000	1040	CS(=O)(=O)c1cccc(-c2cnn3cc(-c4ccc(C(F)(F)CN5CCCC5)cc4)cnc23)c1 [Compound 119, 6-(4-(1,1-difluoro-2-(pyrrolidin-1-yl)ethyl)phenyl)-3-(3-(methylsulfonyl)phenyl)pyrazolo[1,5-a]pyrimidine]
	440	100	> 10000	> 10000	> 10000	> 10000	5.38	CC(O)c1cccc(-c2cnn3cc(-c4ccc(CN5CCCCC5)cc4)cnc23)c1 (stereo not drawn) [Compound 124, 1-(3-(6-(4-(piperidin-1-ylmethyl)phenyl)pyrazolo[1,5-a]pyrimidin-3-yl)phenyl)ethanol]
	3900	560	> 10000	> 10000	> 10000	> 10000	12000	CN1CCN(c2ccc(-c3cnc4c(-c5ccc(S(N)(=O)=O)c6ccccc56)cnn4c3)cn2)CC1 [Compound 48, 4-(6-(6-(4-methylpiperazin-1-yl)pyridin-3-yl)pyrazolo[1,5-a]pyrimidin-3-yl)naphthalene-1-sulfonamide]

More lines, now with the values behind:

SMILES	IC50 (ALK2 [1]; [3]) [nM]	IC50 (ALK1) [nM]	IC50 (ALK2 [2]) [nM]	IC50 (ALK3) [nM]	IC50 (ALK4) [nM]	IC50 (ALK5) [nM]	IC50 (ALK6) [nM]	IC50 (ALK2 [1]; [4]) [nM]
C[C@@H](O)c1cccc(-c2cnn3cc(-c4ccc(OC5(CN6CCCCC6)CC5)cc4)cnc23)c1 [Compound 152, (R)-1-(3-(6-(4-(1-(piperidin-1-ylmethyl)cyclopropoxy)phenyl)pyrazolo[1,5-a]pyrimidin-3-yl)phenyl)ethanol]	450	590	54	1300	> 10000	> 10000	5600	
O=[S+]([O-])(c1cccc(-c2cnn3cc(-c4ccc(C5CCNCC5)cc4)cnc23)c1)C1CC1 [Compound 110, 3-(3-(cyclopropylsulfonyl)phenyl)-6-(4-(piperidin-4-yl)phenyl)pyrazolo[1,5-a]pyrimidine]		480	50	3900	> 10000	> 10000	> 10000	710
Cc1ccc(S(C)(=O)=O)cc1-c1cnn2cc(-c3ccc(N4[C@H](C)CNC[C@@H]4C)cc3)cnc12 [Compound 116, 6-(4-((2R,6S)-2,6-dimethylpiperazin-1-yl)phenyl)-3-(2-methyl-5-(methylsulfonyl)phenyl)pyrazolo[1,5-a]pyrimidine]		> 10000	2200	> 10000	> 10000	> 10000	> 10000	319
CC(O)c1cccc(-c2cnn3cc(-c4ccc(C5(C)CCNCC5)cc4)cnc23)c1 (stereo not drawn) [Compound 136, 1-(3-(6-(4-(4-methylpiperidin-4-yl)phenyl)pyrazolo[1,5-a]pyrimidin-3-yl)phenyl)ethanol]	380	220	57	2900	> 10000	> 10000	> 10000	
CC(O)c1cccc(-c2cnn3cc(-c4ccc(OC5(CN6CCCC6)CC5)cc4)cnc23)c1 (stereo not drawn) [Compound 167, 1-(3-(6-(4-(1-(pyrrolidin-1-ylmethyl)cyclopropoxy)phenyl)pyrazolo[1,5-a]pyrimidin-3-yl)phenyl)ethanol]	370	600	49	1100	> 10000	> 10000	9300	
O=[S+]([O-])(c1cccc(-c2cnn3cc(-c4ccc(CCN5CCCCC5)cc4)cnc23)c1)C1CC1 [Compound 112, 3-(3-(cyclopropylsulfonyl)phenyl)-6-(4-(2-(piperidin-1-yl)ethyl)phenyl)pyrazolo[1,5-a]pyrimidine]		1300	79	8100	> 10000	> 10000	9800	8
